Test systems include DU-145 prostate; HOP-92 NSCLC; HS 578T breast; KM12 colon; NCI-H460 lung; OVCAR-3 ovarian; OVCAR-5 ovarian; RPMI-8226 leukemia; SF-295 CNS; SF-539 CNS.
Holding throughout (assay): NCI-60 cell line screen, 48 h

Molecules are shown by their SMILES. Where “and” joins values, the source holds several entries; their conditions need not be identical. Identical values can stand only once.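 Cells were grown in 96-well plates and exposed to each compound for 48 hours at five concentrations; endpoints were interpolated linearly between bracketing concentrations, or set to the highest concentration if not reached. GI50: concentration for 50% inhibition of growth. TGI: concentration producing complete growth inhibition.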 A value given as a limit tells only on which side of the number the result lay.

In the case of `c1cncc(-c2nc3ccccc3s2)c1`, the GI50 is more than 100 µM in the assay on DU-145 prostate; 18 µM with HOP-92 NSCLC; 50.7 µM in the assay on HS 578T breast; more than 100 µM in the assay with KM12 colon; more than 100 µM in the assay with NCI-H460 lung; more than 100 µM in the assay on OVCAR-3 ovarian. Besides, the GI50 with OVCAR-5 ovarian is more than 100 µM; with RPMI-8226 leukemia it was 99.4 µM; in the assay on SF-295 CNS, more than 100 µM; in the assay on SF-539 CNS, more than 100 µM. The TGI with DU-145 prostate, in the assay with HOP-92 NSCLC, in the assay on HS 578T breast, with KM12 colon, in the assay with NCI-H460 lung and with OVCAR-3 ovarian was more than 100 µM each time. Moreover, the TGI with OVCAR-5 ovarian, in the assay on RPMI-8226 leukemia, in the assay with SF-295 CNS and in the assay with SF-539 CNS was more than 100 µM throughout.

For the molecule `CSc1n(Cc2ccc3ccccc3c2)c(C)c[n+]1Cc1ccc2ccccc2c1`, the GI50 in the assay on DU-145 prostate was 1.07 µM; in the assay on HOP-92 NSCLC it was 0.255 µM; in the assay on HS 578T breast, 1.02 µM; in the assay with KM12 colon it was 0.593 µM; in the assay with NCI-H460 lung, 0.802 µM; with OVCAR-3 ovarian it was 0.445 µM. In addition, the GI50 with OVCAR-5 ovarian is 1.2 µM; with RPMI-8226 leukemia, 0.287 µM; in the assay with SF-295 CNS it was 1.34 µM; with SF-539 CNS it was 0.797 µM. Also, the TGI in the assay on DU-145 prostate was found to be 2.39 µM; with HOP-92 NSCLC, 1.28 µM; in the assay with HS 578T breast, 2.7 µM; with KM12 colon it was 1.96 µM; in the assay on NCI-H460 lung, 2.18 µM; in the assay with OVCAR-3 ovarian it was 1.63 µM. For the same molecule, the TGI is 2.53 µM in the assay with OVCAR-5 ovarian, 1.36 µM in the assay on RPMI-8226 leukemia, 2.69 µM in the assay with SF-295 CNS and 2.12 µM with SF-539 CNS.

In the case of `COc1cc2c(cc1OC)-c1ccc3cc4c(cc3c1N(CCN(C)C)C2)OCO4`, the GI50 with DU-145 prostate was 0.377 µM; in the assay with HOP-92 NSCLC, 0.859 µM; with HS 578T breast it was 1.68 µM; in the assay with KM12 colon it was 0.97 µM; in the assay with NCI-H460 lung it was 0.256 µM; with OVCAR-3 ovarian it was 0.593 µM. In addition, the GI50 was 1.53 µM in the assay on OVCAR-5 ovarian, 0.221 µM with RPMI-8226 leukemia, 0.4 µM with SF-295 CNS and 0.352 µM in the assay on SF-539 CNS. Besides, the TGI in the assay with DU-145 prostate came to 8.76 µM; in the assay on HOP-92 NSCLC, 7.94 µM; with HS 578T breast it was 13.7 µM; with KM12 colon, 2.47 µM; with NCI-H460 lung, 1.2 µM; in the assay on OVCAR-3 ovarian it was 2.28 µM. Moreover, the TGI stood at 5.23 µM in the assay with OVCAR-5 ovarian, 1.36 µM in the assay with RPMI-8226 leukemia, 8.28 µM in the assay on SF-295 CNS and 2.53 µM in the assay with SF-539 CNS.

`OC(C1CO1)C(O)C1CO1` (stereo not drawn): the GI50 was 6.7 µM in the assay on DU-145 prostate; 56.1 µM in the assay on HOP-92 NSCLC; 39.3 µM in the assay with HS 578T breast; 2.14 µM in the assay on NCI-H460 lung; 101 µM in the assay on OVCAR-3 ovarian; 93.9 µM in the assay with OVCAR-5 ovarian. Besides, the GI50 with RPMI-8226 leukemia was 84 µM; in the assay with SF-295 CNS, 11.9 µM and 1.59 µM. Further, the TGI in the assay with DU-145 prostate was 109 µM and 154 µM; with HOP-92 NSCLC, 146 µM and 219 µM; in the assay with HS 578T breast, 150 µM and 392 µM; in the assay on KM12 colon, 112 µM and 254 µM; with NCI-H460 lung it was 53.5 µM and 140 µM; in the assay with OVCAR-3 ovarian, 98.7 µM and 286 µM. Moreover, the TGI with OVCAR-5 ovarian was 137 µM and 237 µM; with RPMI-8226 leukemia, 150 µM and 861 µM; with SF-295 CNS, 123 µM and 126 µM; in the assay on SF-539 CNS it was 106 µM and 128 µM.

Consider `Cc1ccc(C(=O)/C(=C\c2ccc([N+](=O)[O-])cc2)S(=O)Cc2ccc(F)cc2)cc1` (stereo not drawn), for which the GI50 was 1.49 µM in the assay with DU-145 prostate; 1.93 µM with HOP-92 NSCLC; 2.87 µM in the assay with HS 578T breast; 2.12 µM in the assay on KM12 colon; 1.89 µM with NCI-H460 lung; 1.57 µM in the assay with OVCAR-3 ovarian. Further, the GI50 in the assay with OVCAR-5 ovarian is 1.96 µM; in the assay with RPMI-8226 leukemia it was 1.02 µM; with SF-295 CNS it was 1.94 µM; in the assay on SF-539 CNS it was 1.72 µM. For the same molecule, the TGI was 2.86 µM with DU-145 prostate; 3.87 µM in the assay with HOP-92 NSCLC; 8.76 µM with HS 578T breast; 4.78 µM in the assay with KM12 colon; 3.85 µM in the assay with NCI-H460 lung; 2.96 µM in the assay on OVCAR-3 ovarian. For the same molecule, the TGI in the assay on OVCAR-5 ovarian is 3.93 µM; in the assay on RPMI-8226 leukemia, 4.33 µM; in the assay on SF-295 CNS, 5.05 µM; in the assay on SF-539 CNS, 3.29 µM.

Consider `COc1ccc(SC2c3ccc(C)cc3Oc3nc(N)c(C#N)c(N)c32)cc1` (stereo not drawn), for which the GI50 is 1.82 µM in the assay on DU-145 prostate; 1.84 µM in the assay on HOP-92 NSCLC; 2.27 µM in the assay on HS 578T breast; 1.61 µM in the assay on KM12 colon; 2.13 µM in the assay with NCI-H460 lung; 1.75 µM with OVCAR-3 ovarian. Besides, the GI50 is 1.74 µM in the assay on OVCAR-5 ovarian, 2.47 µM with RPMI-8226 leukemia, 1.55 µM with SF-295 CNS and 1.64 µM with SF-539 CNS. The TGI in the assay on DU-145 prostate amounted to 3.21 µM; in the assay on HOP-92 NSCLC, 3.55 µM; in the assay with HS 578T breast it was 5.54 µM; in the assay on KM12 colon, 3.05 µM; in the assay with NCI-H460 lung it was 4.36 µM; in the assay with OVCAR-3 ovarian it was 3.13 µM. The TGI with OVCAR-5 ovarian came to 3.35 µM; with RPMI-8226 leukemia, 6.56 µM; in the assay on SF-295 CNS, 2.89 µM; with SF-539 CNS, 3 µM.

Turning to `N#Cc1ccc(C2C3=C(CCCC3=O)OC3=C2C(=O)c2ccccc2C3=O)cc1` (stereo not drawn), the GI50 in the assay with DU-145 prostate was 1.67 µM; in the assay on HOP-92 NSCLC, 1.27 µM; in the assay with HS 578T breast, 3.21 µM; with KM12 colon it was 3.14 µM; in the assay with NCI-H460 lung, 3.64 µM; with OVCAR-3 ovarian it was 0.27 µM. Also, the GI50 in the assay on OVCAR-5 ovarian was 2.09 µM; with RPMI-8226 leukemia it was 2.3 µM; with SF-295 CNS it was 1.83 µM; with SF-539 CNS, 1.69 µM. Also, the TGI in the assay on DU-145 prostate was 3.07 µM; in the assay on HOP-92 NSCLC, 3.59 µM; with HS 578T breast, 9.37 µM; in the assay with KM12 colon it was 12.9 µM; in the assay with NCI-H460 lung it was 13.3 µM; in the assay with OVCAR-3 ovarian it was 0.711 µM. The TGI in the assay on OVCAR-5 ovarian came to 4.23 µM; in the assay on RPMI-8226 leukemia, 7.12 µM; in the assay with SF-295 CNS, 3.9 µM; in the assay with SF-539 CNS it was 3.06 µM.

These data come from PubChem BioAssay (NCI).
